# From patent US20250136652A1, “FUSION PROTEIN FOR TARGETING RECOMBINANT PROTEINS FOR DEGRADATION” (The Regents of the University of California, priority 2022, published 2025)
# Tested on: 4-1BB variant second-generation ('BBz') CARs that target CD19 or HER2
# Assay: Surface CAR expression in Jurkat T cells by anti-myc antibody stain and flow cytometry
# Type: cell-based
# Details: 72 hours after removal of lentivirus
# Description: FIG. 4A: Tethering of STUD to plasma membrane allows for functional knockdown for second-generation chimeric antigen receptors (CAR). Cartoon diagram of membrane tethered STUD (‘memSTUD’) and non-functional (‘NF’) control relative to original ‘soluble’ STUD design. The DNA cartoon represents the plasmid used in experiments done in this panel. (RRRG (SEQ ID NO:32); TRGN (SEQ ID NO:50)).
# FIG. 4B: Plasmid diagramed in FIG. 4A transduced into Jurkat T cells and CAR fluorescence measured 72 hours removal of lentivirus. CAR fluorescence is measured by antibody stain for myc tag fused to CAR extracellular domain. […] Dots represent three independent experiments and errors bars show standard deviation.
# Increasing the local concentration of the STUD at the membrane by fusion to a membrane localization domain was tested. […] The surface CAR expression by fluorescence of this antibody stain was measured by flow cytometry.
# Membrane targeting STUD: Membrane targeting cells were introduced by lentiviral transduction of two plasmids. […] Cells were then analyzed by flow cytometry. Cells were gated on expression of co-transduction fluorescent proteins (BFP/mCherry) and STUD efficacy was measured by knockdown of CAR/SynNotch. CAR and SynNotch expression was measured by antibody staining for a peptide tag fused to the extracellular domain of the CAR/SynNotch. […]
substance,measurement,value
"SynZip STUD: Fusion protein SEQ ID NO: 413: lysine-free modified synZIP18 heterodimerization domain, flexible linker, C-terminal RRRG degron; 55 amino acids (SIAATLENDLARLENENARLERDIANLERDLARLEREEAYFGSGSGSGSGSRRRG)",degradation of CAR (surface CAR expression),inefficiently
